Data as given in EP2712863B1, “Novel inhibitors of bacterial biofilms and related methods” (Sequoia Sciences, Inc., priority 2012, dated 2014).
In brackets after ≈: the same amount, converted by molar mass. Like-named read-outs stand apart in the source and are kept apart here.

What was measured:
P. aeruginosa = assay: Biofilm growth assay (spreading biofilm on semi-solid agar); format: cell-based; details: for IC85: Pseudomonas aeruginosa
E. coli = assay: as above; format: cell-based; details: for IC85: Escherichia coli
Outline: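 Spreading (swarming) biofilm on semi-solid agar: E. coli on LB with 0.6% agar and 0.5% glucose; P. aeruginosa on M8 agar with 0.2% glucose, 100 µM CaCl2, 1 mM MgSO4, 0.5% Casamino acids. Compound in medium; 5 µL overnight culture spotted centrally, 37°C overnight. Value: concentration (µg/ml) giving ≥85% reduction in spread area versus negative control.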

[1] = Table 3, concentration that reduces the area of the spreading biofilm by >= 85%, read-out: P. aeruginosa
[2] = Table 3, concentration that reduces the area of the spreading biofilm by >= 85%, read-out: E. coli
[3] = Table 4, concentration that reduces the area of the spreading biofilm by >= 85%, read-out: P. aeruginosa
[4] = Table 4, concentration that reduces the area of the spreading biofilm by >= 85%, read-out: E. coli
[5] = Table 4, concentration that reduces the area of the spreading biofilm by >= 85%

Row | Compound | IC85 (P. aeruginosa; [1]) [µg/mL] | IC85 (E. coli; [2]) [µg/mL] | IC85 (P. aeruginosa; [3]) [µg/mL] | IC85 (E. coli; [4]) [µg/mL] | further results
1 | CC1(C)CC[C@]2(C(=O)O)CC[C@]3(C)C(=C(c4ccc(N5CCOCC5)nc4)CC4[C@@]5(C)Cc6c(n[nH]c6N)C(C)(C)[C@@H]5CC[C@]43C)[C@@H]2C1 (stereo partly drawn) [Compound 54, (4aS,6aS,6bR,8aR,13aR,15bS)-12-Amino-2,2,6a,6b,9,9,13a-heptamethyl-15-(6-morpholinopyridin-3-yl)-2,3,4,4a,5,6,6a,6b,7,8,8a,9,11,13,13a,13b,14,15b-octadecahydro-1H-chryseno[1,2-f]indazole-4a-carboxylic acid] | 1 (≈ 1.52 µM) | 2 (≈ 3.05 µM) | – | – | –
2 | CC1(C)CC[C@]2(C(=O)O)CC[C@]3(C)C(=C(c4ccc(N5CCNCC5)nc4)CC4[C@@]5(C)Cc6c(n[nH]c6N)C(C)(C)C5CC[C@]43C)C2C1 (stereo partly drawn) [Compound 55, (4aS,6aS,6bR,13aR)-12-Amino-2,2,6a,6b,9,9,13a-heptamethyl-15-(6-(piperazin-1-yl)pyridin-3-yl)-2,3,4,4a,5,6,6a,6b,7,8,8a,9,11,13,13a,13b,14,15b-octadecahydro-1H-chryseno[1,2-f]indazole-4a-carboxylic acid] | > 1 | 2 (≈ 3.05 µM) | – | – | –
3 | CN1CCN(c2ccc(C3=C4C5CC(C)(C)CC[C@]5(C(=O)O)CC[C@@]4(C)[C@]4(C)CCC5C(C)(C)c6n[nH]c(N)c6C[C@]5(C)C4C3)cn2)CC1 (stereo partly drawn) [Compound 56, (4aS,6aS,6bR,13aR)-12-Amino-2,2,6a,6b,9,9,13a-heptamethyl-15-(6-(4-methylpiperazin-1-yl)pyridin-3-yl)-2,3,4,4a,5,6,6a,6b,7,8,8a,9,11,13,13a,13b,14,15b-octadecahydro-1H-chryseno[1,2-f]indazole-4a-carboxylic acid] | 1 (≈ 1.49 µM) | 2 (≈ 2.99 µM) | – | – | –
4 | CC1(C)CC[C@]2(C(=O)O)CC[C@]3(C)C(=C(c4ccc(N5CCC(N)CC5)nc4)CC4[C@@]5(C)Cc6c(n[nH]c6N)C(C)(C)C5CC[C@]43C)C2C1 (stereo partly drawn) [Compound 57, (4aS,6aS,6bR,13aR)-12-Amino-15-(6-(4-aminopiperidin-1-yl)pyridin-3-yl)-2,2,6a,6b,9,9,13a-heptamethyl-2,3,4,4a,5,6,6a,6b,7,8,8a,9,11,13,13a,13b,14,15b-octadecahydro-1H-chryseno[1,2-f]indazole-4a-carboxylic acid] | > 2 | 1 (≈ 1.49 µM) | – | – | –
5 | CC1(C)CC[C@]2(C(=O)O)CC[C@]3(C)C(=C(c4ccc(N5CCC(N)C5)nc4)CC4[C@@]5(C)Cc6c(n[nH]c6N)C(C)(C)C5CC[C@]43C)C2C1 (stereo partly drawn) [Compound 58, (4aS,6aS,6bR,13aR)-12-Amino-15-(6-(3-aminopyrrolidin-1-yl)pyridin-3-yl)-2,2,6a,6b,9,9,13a-heptamethyl-2,3,4,4a,5,6,6a,6b,7,8,8a,9,11,13,13a,13b,14,15b-octadecahydro-1H-chryseno[1,2-f]indazole-4a-carboxylic acid] | 1 (≈ 1.53 µM) | 2 (≈ 3.05 µM) | – | – | –
6 | CC1(C)CC[C@]2(C(=O)O)CC[C@]3(C)C(=C(c4ccccc4CN4CCOCC4)CC4[C@@]5(C)Cc6c(n[nH]c6N)C(C)(C)[C@@H]5CC[C@]43C)[C@@H]2C1 (stereo partly drawn) [Compound 59, (4aS,6aS,6bR,8aR,13aR,15bS)-12-Amino-2,2,6a,6b,9,9,13a-heptamethyl-15-(2-(morpholinomethyl)phenyl)-2,3,4,4a,5,6,6a,6b,7,8,8a,9,11,13,13a,13b,14,15b-octadecahydro-1H-chryseno[1,2-f]indazole-4a-carboxylic acid] | 0.5 (≈ 0.747 µM) | > 1 | – | – | –
7 | CC1(C)CC[C@]2(c3cc(N)[nH]n3)CC[C@]3(C)C(=CCC4[C@@]5(C)Cc6c(n[nH]c6N)C(C)(C)C5CC[C@]43C)C2C1 (stereo partly drawn) [Compound 60, (4aS,6aS,6bR,13aR)-4a-(5-Amino-1 H-pyrazol-3-yl)-2,2,6a,6b,9,9,13a-heptamethyl-2,3,4,4a,5,6,6a,6b,7,8,8a,9,11,13,13a,13b,14,15b-octadecahydro-1H-chryseno[1,2-f]indazol-12-amine] | – | – | 0.5 (≈ 0.942 µM) | 1 (≈ 1.88 µM) | –
8 | CC1(C)CC[C@]2(C(=O)Nc3nnn[nH]3)CC[C@]3(C)C(=CCC4[C@@]5(C)Cc6c(n[nH]c6N)C(C)(C)C5CC[C@]43C)C2C1 (stereo partly drawn) [Compound 61, (4aS,6aS,6bR,13aR)-12-Amino-2,2,6a,6b,9,9,13a-heptamethyl-N-(1H-tetrazol-5-yl)-2,3,4,4a,5,6,6a,6b,7,8,8a,9,11,13,13a,13b,14,15b-octadecahydro-1H-chryseno[1,2-f]indazole-4a-carboxamide] | – | – | – | – | IC85 (P. aeruginosa; read-out: P. aeruginosa (µg/ml)): 0.5 µg/mL (≈ 0.892 µM); IC85 (E. coli; read-out: E. coli (µg/ml)): 0.5 µg/mL (≈ 0.892 µM)
9 | CC1(C)CC[C@]2(CN)CC[C@]3(C)C(=CCC4[C@@]5(C)Cc6c(n[nH]c6N)C(C)(C)C5CC[C@]43C)C2C1 (stereo partly drawn) [Compound 63, (4aS,6aS,6bR,13aR)-4a-(Aminomethyl)-2,2,6a,6b,9,9,13a-heptamethyl-2,3,4,4a,5,6,6a,6b,7,8,8a,9,11,13,13a,13b,14,15b-octadecahydro-1H-chryseno[1,2-f]indazol-12-amine] | – | – | 4 (≈ 8.35 µM) | 1 (≈ 2.09 µM) | –
10 | CC1(C)CC[C@]2(C(=O)NO)CC[C@]3(C)C(=CCC4[C@@]5(C)Cc6c(n[nH]c6N)C(C)(C)C5CC[C@]43C)C2C1 (stereo partly drawn) [Compound 65, (4aS,6aS,6bR,13aR)-12-Amino-N-hydroxy-2,2,6a,6b,9,9,13a-heptamethyl-2,3,4,4a,5,6,6a,6b,7,8,8a,9,11,13,13a,13b,14,15b-octadecahydro-1H-chryseno[1,2-f]indazole-4a-carboxamide] | – | – | 0.25 (≈ 0.491 µM) | 0.25 (≈ 0.491 µM) | –
11 | CC1(C)CC[C@]2(C(=O)Nc3cc(O)[nH]n3)CC[C@]3(C)C(=CCC4[C@@]5(C)Cc6c(n[nH]c6N)C(C)(C)C5CC[C@]43C)C2C1 (stereo partly drawn) [Compound 66, (4aS,6aS,6bR,13aR)-12-Amino-N-(5-hydroxy-1H-pyrazol-3-yl)-2,2,6a,6b,9,9,13a-heptamethyl-2,3,4,4a,5,6,6a,6b,7,8,8a,9,11,13,13a,13b, 14,15b-octadecahydro-1H-chryseno[1,2-f]indazole-4a-carboxamide] | – | – | 0.25 (≈ 0.435 µM) | 1 (≈ 1.74 µM) | –
12 | CC1(C)CC[C@]2(c3nnco3)CC[C@]3(C)C(=CCC4[C@@]5(C)Cc6c(n[nH]c6N)C(C)(C)C5CC[C@]43C)C2C1 (stereo partly drawn) [Compound 67, (4aS,6aS,6bR,13aR)-2,2,6a,6b,9,9,13a-Heptamethyl-4a-(1,3,4-oxadiazol-2-yl)-2,3,4,4a,5,6,6a,6b,7,8,8a,9,11,13,13a,13b,14,15b-octadecahydro-1H-chryseno[1,2-]indazol-12-amine] | – | – | – | – | P. aeruginosa (P. aeruginosa; [5]): 1 µg/mL; E. coli (E. coli; [5]): 2 µg/mL
13 | CC1(C)CC[C@]2(C(=O)Nc3cc(N)n[nH]3)CC[C@]3(C)C(=CCC4[C@@]5(C)Cc6c(n[nH]c6N)C(C)(C)C5CC[C@]43C)C2C1 (stereo partly drawn) [Compound 69, (4aS,6aS,6bR,13aR)-12-amino-N-(3-amino-1H-pyrazol-5-yl)-2,2,6a,6b,9,9,13a-heptamethyl-2,3,4,4a,5,6,6a,6b,7,8,8a,9,11,13,13a,13b,14,15b-octadecahydro-1H-chryseno[1,2-f]indazole-4a-carboxamide] | – | – | 1 (≈ 1.74 µM) | 1 (≈ 1.74 µM) | –
14 | CC1(C)CC[C@]2(C(=O)Sc3nnc(N)[nH]3)CC[C@]3(C)C(=CCC4[C@@]5(C)Cc6c(n[nH]c6N)C(C)(C)C5CC[C@]43C)C2C1 (stereo partly drawn) [Compound 70, (4aS,6aS,6bR,13aR)-S-5-Amino-4H-1,2,4-triazol-3-yl 12-amino-2,2,6a,6b,9,9,13a-heptamethyl-2,3,4,4a,5,6,6a,6b,7,8,8a,9,11,13,13a,13b,14,15b-octadecahydro-1H-chryseno[1,2-f]indazole-4a-carbothioate] | – | – | 0.5 (≈ 0.845 µM) | 2 (≈ 3.38 µM) | –
15 | CC1(C)CC[C@]2(C(=O)Nc3nnc(N)s3)CC[C@]3(C)C(=CCC4[C@@]5(C)Cc6c(n[nH]c6N)C(C)(C)C5CC[C@]43C)C2C1 (stereo partly drawn) [Compound 71, (4aS,6aS,6bR,13aR)-12-Amino-N-(5-amino-1,3,4-thiadiazol-2-yl)-2,2,6a,6b,9,9,13a-heptamethyl-2,3,4,4a,5,6,6a,6b,7,8,8a,9,11,13,13a,13b,14,15b-octadecahydro-1H-chryseno[1,2-f]indazole-4a-carboxamide] | – | – | 0.5 (≈ 0.845 µM) | 2 (≈ 3.38 µM) | –
16 | Cn1nc([C@]23CCC(C)(C)C[C@H]2C2=CCC4[C@@]5(C)Cc6c(n[nH]c6N)C(C)(C)[C@@H]5CC[C@@]4(C)[C@]2(C)CC3)cc1N (stereo partly drawn) [Compound 72, (4aS,6aS,6bR,8aR,13aR,15bS)-4a-(5-Amino-1-methyl-1H-pyrazol-3-yl)-2,2,6a,6b,9,9,13a-heptamethyl-2,3,4,4a,5,6,6a,6b,7,8,8a,9,11,13,13a,13b,14,15b-octadecahydro-1H-chryseno[1,2-f]indazol-12-amine] | – | – | 1 (≈ 1.84 µM) | > 2 | –
17 | CC1(C)CC[C@]2(C(=O)n3ccnc3N)CC[C@]3(C)C(=CCC4[C@@]5(C)Cc6c(n[nH]c6N)C(C)(C)C5CC[C@]43C)C2C1 (stereo partly drawn) [Compound 73, (2-Amino-1H-imidazol-1-yl)((4aS,6aS,6bR,13aR)-12-amino-2,2,6a,6b,9,9,13a-heptamethyl-2,3,4,4a,5,6,6a,6b,7,8,8a,9,11,13,13a,13b,14,15b-octadecahydro-1H-chryseno[1,2-f]indazol-4a-yl)methanone] | – | – | 1 (≈ 1.79 µM) | 1 (≈ 1.79 µM) | –
18 | CC1(C)CC[C@]2(C(=O)Nc3nnc(S)s3)CC[C@]3(C)C(=CCC4[C@@]5(C)Cc6c(n[nH]c6N)C(C)(C)C5CC[C@]43C)C2C1 (stereo partly drawn) [Compound 74, (4aS,6aS,6bR,13aR)-12-Amino-N-(5-mercapto-1,3,4-thiadiazol-2-yl)-2,2,6a,6b,9,9,13a-heptamethyl-2,3,4,4a,5,6,6a,6b,7,8,8a,9,11,13,13a,13b,14,15b-octadecahydro-1H-chryseno[1,2-f]indazole-4a-carboxamide] | – | – | 1 (≈ 1.64 µM) | > 2 | –
